Measurements reported in patent US10654847B2, “Substituted 2-(4-heterocyclylbenzyl)isoindolin-1-one analogs as positive allosteric modulators of the muscarinic acetylcholine receptor M1” (Vanderbilt University, priority 2011, dated 2020).

Molecular target: T1, mAChR M1 (UniProt P11229)
T1 sequence (P11229 1-460): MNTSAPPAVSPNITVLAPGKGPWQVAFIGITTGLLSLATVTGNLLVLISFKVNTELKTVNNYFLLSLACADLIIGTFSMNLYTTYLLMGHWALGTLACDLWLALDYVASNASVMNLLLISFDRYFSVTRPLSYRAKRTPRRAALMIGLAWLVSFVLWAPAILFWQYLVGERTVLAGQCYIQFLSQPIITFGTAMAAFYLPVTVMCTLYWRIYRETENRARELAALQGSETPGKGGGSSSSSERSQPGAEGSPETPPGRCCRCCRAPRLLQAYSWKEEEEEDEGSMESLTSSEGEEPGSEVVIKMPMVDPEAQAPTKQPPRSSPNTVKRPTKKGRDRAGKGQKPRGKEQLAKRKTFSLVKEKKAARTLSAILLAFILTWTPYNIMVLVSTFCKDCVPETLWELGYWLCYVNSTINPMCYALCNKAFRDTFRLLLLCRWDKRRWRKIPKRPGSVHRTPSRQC
Assay: mAChR M1 cell-based functional assay (calcium mobilization, potentiation of EC20 acetylcholine response)
Settings: % ACh maximum at 30 μM; mAChR M1-expressing CHO-K1 cells, calcium flux
Experimental: Chinese hamster ovary (CHO-K1) cells stably expressing rat (r)M1 were purchased from the American Type Culture Collection and cultured according to their indicated protocol. […] To make stable rM2, hM2, rM3, hM4, and rM4 cell lines for use in calcium mobilization assays, these cells also were stably transfected with a chimeric G-protein (Gqi5) (provided by B. R. Conklin, University of California, San Francisco) using Lipofectamine 2000. rM1, hM1, rM3, hM3, rM5, and hM5 cells were grown in Ham's F-12 medium containing 10% heat-inactivated fetal bovine serum (FBS), 20 mM HEPES, and 50 μg/mL G418 sulfate. rM2-Gqi5, hM2-Gqi5, and hM4-Gqi5 cells were grown in the same medium also containing 500 μg/mL Hygromycin B. Stable rM4-Gqi5 cells were grown in DMEM containing 10% heat-inactivated FBS, 20 mM HEPES, 400 μg/mL G418 sulfate, and 500 μg/mL Hygromycin B.
For high throughput measurement of agonist-evoked increases in intracellular calcium, CHO-K1 cells stably expressing muscarinic receptors were plated in growth medium lacking G418 and hygromycin at 15,000 cells/20 μL/well in Greiner 384-well black-walled, tissue culture (TC)-treated, clear-bottom plates (VWR). Cells were incubated overnight at 37° C. and 5% CO2. […] Compound master plates were formatted in an 11 point CRC format (1:3 dilutions) in 100% DMSO with a starting concentration of 10 mM using the BRAVO liquid handler (Agilent). Test compound CRCs were then transferred to daughter plates (240 nL) using the Echo acoustic plate reformatter (Labcyte, Sunnyvale, Calif.) and then diluted into assay buffer (40 μL) to a 2× stock using a Thermo Fisher Combi (Thermo Fisher Scientific, Waltham, Mass.).
Calcium flux was measured using the Functional Drug Screening System (FDSS) 6000 (Hamamatsu Corporation, Tokyo, Japan) as an increase in the fluorescent static ratio. Compounds were applied to cells (20 μL, 2×) using the automated system of the FDSS 6000 at 4 s into the 300 s protocol and the data were collected at 1 Hz. […] Agonist activity was analyzed as a concentration-dependent increase in calcium mobilization upon compound addition. Positive allosteric modulator activity was analyzed as a concentration-dependent increase in the EC20 acetylcholine response. Antagonist activity was analyzed as a concentration-dependent decrease in the EC80 acetylcholine response. Concentration-response curves were generated using a four-parameter logistical equation in XLfit curve fitting software (IDBS, Bridgewater, N.J.) for Excel (Microsoft, Redmond, Wash.) or Prism (GraphPad Software, Inc., San Diego, Calif.).
The above described assay was also operated in a second mode where an appropriate fixed concentration of the present compounds were added to the cells after establishment of a fluorescence baseline for about 3 seconds, and the response in cells was measured. […] Data were reduced as described above and the EC50 values for the agonist in the presence of test compound were determined by nonlinear curve fitting. A decrease in the EC50 value of the agonist with increasing concentrations of the present compounds (a leftward shift of the agonist concentration-response curve) is an indication of the degree of muscarinic positive allosteric modulation at a given concentration of the present compound. An increase in the EC50 value of the agonist with increasing concentrations of the present compounds (a rightward shift of the agonist concentration response curve) is an indication of the degree of muscarinic antagonism at a given concentration of the present compound. The second mode also indicates whether the present compounds also affect the maximum response of the muscarinic receptor to agonists.
The calcium mobilization assay was also used to determine “efficacy”.

| Emax (%) | SMILES |
| --- | --- |
| 58 | O=C1Cc2cc(-c3ccc(CN4Cc5ncccc5C4=O)c(F)c3)ccc2N1 [Example B86] |
| 53 | O=C1c2cccnc2CN1Cc1ccc(-c2cn3ccnc3cn2)cc1F [Example B90] |
| 62 | O=C1c2cccnc2CN1Cc1ccc(-c2ccc3cncn3c2)cc1F [Example B92] |
| 65 | O=C1c2cccnc2CN1Cc1ccc(-c2cnc3ccccn23)cc1F [Example B93] |
| 62 | O=C1c2cccnc2CN1Cc1c(F)cc(-c2ccc3cnccc3c2)cc1F [Example B97] |
| 71 | O=C1c2cccnc2CN1Cc1c(F)cc(-c2ccc3cncn3c2)cc1F [Example B100] |

Second part, the molecule before the results:

| SMILES | Emax (%) |
| --- | --- |
| Cn1cc2c(-c3cc(F)c(CN4Cc5ncccc5C4=O)cc3F)cccc2n1 [Example B87] | 68 |
| O=C1c2cccnc2CN1Cc1c(F)cc(-c2cnc3ccccn23)cc1F [Example B88] | 63 |
| O=C1c2cccnc2CN1Cc1c(F)cc(-c2cccc3nccn23)cc1F [Example B89] | 48 |
| O=C1Cc2cc(-c3cc(F)c(CN4Cc5ncccc5C4=O)c(F)c3)ccc2N1 [Example B91] | 67 |
| O=C1c2cccnc2CN1Cc1c(F)cc(-c2ccc3c(c2)OCCO3)cc1F [Example B94] | 36 |
| O=C1c2cccnc2CN1Cc1c(F)cc(-c2cccc3ncccc23)cc1F [Example B95] | 53 |
| O=C1c2cccnc2CN1Cc1c(F)cc(-c2ccc3ncccc3c2)cc1F [Example B96] | 54 |
| Cc1n[nH]c2cc(-c3cc(F)c(CN4Cc5ncccc5C4=O)c(F)c3)ccc12 [Example B98] | 49 |
| O=C1c2cccnc2CN1Cc1c(F)cc(-c2cccc3cnccc23)cc1F [Example B99] | 41 |
| O=C1c2cccnc2CN1Cc1c(F)cc(-c2ccc3c(c2)C2(OCCO2)C(=O)N3)cc1F [Example B101] | 48 |
| Cc1n[nH]c2ccc(-c3cc(F)c(CN4Cc5ncccc5C4=O)c(F)c3)cc12 [Example B102] | 68 |
| CN1CCc2cc(-c3cc(F)c(CN4Cc5ncccc5C4=O)c(F)c3)ccc21 [Example B103] | 56 |
| COc1cc(-c2cccc3nn(C)cc23)ccc1CN1Cc2ncccc2C1=O [Example B104] | 70 |
| Cn1cc2cc(-c3cc(F)c(CN4Cc5ncccc5C4=O)cc3F)ccc2n1 [Example B105] | 69 |

Same assay, conditions: positive allosteric modulation of EC20 ACh response, mAChR M1 CHO-K1 cells; <5 estimated where no plateau

| pEC50 | SMILES |
| --- | --- |
| 6.25 | O=C1Cc2cc(-c3ccc(CN4Cc5ncccc5C4=O)c(F)c3)ccc2N1 [Example B86] |
| <5.00 | O=C1c2cccnc2CN1Cc1ccc(-c2cn3ccnc3cn2)cc1F [Example B90] |
| 6.06 | O=C1c2cccnc2CN1Cc1ccc(-c2ccc3cncn3c2)cc1F [Example B92] |
| 5.53 | O=C1c2cccnc2CN1Cc1ccc(-c2cnc3ccccn23)cc1F [Example B93] |
| 6.23 | O=C1c2cccnc2CN1Cc1c(F)cc(-c2ccc3cnccc3c2)cc1F [Example B97] |
| 5.88 | O=C1c2cccnc2CN1Cc1c(F)cc(-c2ccc3cncn3c2)cc1F [Example B100] |

The remaining lines, values behind:

| SMILES | pEC50 |
| --- | --- |
| Cn1cc2c(-c3cc(F)c(CN4Cc5ncccc5C4=O)cc3F)cccc2n1 [Example B87] | 5.22 |
| O=C1c2cccnc2CN1Cc1c(F)cc(-c2cnc3ccccn23)cc1F [Example B88] | <5.00 |
| O=C1c2cccnc2CN1Cc1c(F)cc(-c2cccc3nccn23)cc1F [Example B89] | <5.00 |
| O=C1Cc2cc(-c3cc(F)c(CN4Cc5ncccc5C4=O)c(F)c3)ccc2N1 [Example B91] | 6.51 |
| O=C1c2cccnc2CN1Cc1c(F)cc(-c2ccc3c(c2)OCCO3)cc1F [Example B94] | 6.71 |
| O=C1c2cccnc2CN1Cc1c(F)cc(-c2cccc3ncccc23)cc1F [Example B95] | <5.00 |
| O=C1c2cccnc2CN1Cc1c(F)cc(-c2ccc3ncccc3c2)cc1F [Example B96] | 6.56 |
| Cc1n[nH]c2cc(-c3cc(F)c(CN4Cc5ncccc5C4=O)c(F)c3)ccc12 [Example B98] | 6.68 |
| O=C1c2cccnc2CN1Cc1c(F)cc(-c2cccc3cnccc23)cc1F [Example B99] | <5.00 |
| O=C1c2cccnc2CN1Cc1c(F)cc(-c2ccc3c(c2)C2(OCCO2)C(=O)N3)cc1F [Example B101] | <5.00 |
| Cc1n[nH]c2ccc(-c3cc(F)c(CN4Cc5ncccc5C4=O)c(F)c3)cc12 [Example B102] | 6.91 |
| CN1CCc2cc(-c3cc(F)c(CN4Cc5ncccc5C4=O)c(F)c3)ccc21 [Example B103] | 5.83 |
| COc1cc(-c2cccc3nn(C)cc23)ccc1CN1Cc2ncccc2C1=O [Example B104] | 5.82 |
| Cn1cc2cc(-c3cc(F)c(CN4Cc5ncccc5C4=O)cc3F)ccc2n1 [Example B105] | 6.39 |

Same assay, conditions: positive allosteric modulation of EC20 ACh response, mAChR M1 CHO-K1 cells; >10 μM estimated where no plateau; read-out: EC50

| EC50 [nM] | SMILES |
| --- | --- |
| 562 | O=C1Cc2cc(-c3ccc(CN4Cc5ncccc5C4=O)c(F)c3)ccc2N1 [Example B86] |
| > 10000 | O=C1c2cccnc2CN1Cc1ccc(-c2cn3ccnc3cn2)cc1F [Example B90] |
| 871 | O=C1c2cccnc2CN1Cc1ccc(-c2ccc3cncn3c2)cc1F [Example B92] |
| 2950 | O=C1c2cccnc2CN1Cc1ccc(-c2cnc3ccccn23)cc1F [Example B93] |
| 589 | O=C1c2cccnc2CN1Cc1c(F)cc(-c2ccc3cnccc3c2)cc1F [Example B97] |
| 1320 | O=C1c2cccnc2CN1Cc1c(F)cc(-c2ccc3cncn3c2)cc1F [Example B100] |

Continued, molecule first:

| SMILES | EC50 [nM] |
| --- | --- |
| Cn1cc2c(-c3cc(F)c(CN4Cc5ncccc5C4=O)cc3F)cccc2n1 [Example B87] | 6030 |
| O=C1c2cccnc2CN1Cc1c(F)cc(-c2cnc3ccccn23)cc1F [Example B88] | > 10000 |
| O=C1c2cccnc2CN1Cc1c(F)cc(-c2cccc3nccn23)cc1F [Example B89] | > 10000 |
| O=C1Cc2cc(-c3cc(F)c(CN4Cc5ncccc5C4=O)c(F)c3)ccc2N1 [Example B91] | 309 |
| O=C1c2cccnc2CN1Cc1c(F)cc(-c2ccc3c(c2)OCCO3)cc1F [Example B94] | 195 |
| O=C1c2cccnc2CN1Cc1c(F)cc(-c2cccc3ncccc23)cc1F [Example B95] | > 10000 |
| O=C1c2cccnc2CN1Cc1c(F)cc(-c2ccc3ncccc3c2)cc1F [Example B96] | 275 |
| Cc1n[nH]c2cc(-c3cc(F)c(CN4Cc5ncccc5C4=O)c(F)c3)ccc12 [Example B98] | 209 |
| O=C1c2cccnc2CN1Cc1c(F)cc(-c2cccc3cnccc23)cc1F [Example B99] | > 10000 |
| O=C1c2cccnc2CN1Cc1c(F)cc(-c2ccc3c(c2)C2(OCCO2)C(=O)N3)cc1F [Example B101] | > 10000 |
| Cc1n[nH]c2ccc(-c3cc(F)c(CN4Cc5ncccc5C4=O)c(F)c3)cc12 [Example B102] | 123 |
| CN1CCc2cc(-c3cc(F)c(CN4Cc5ncccc5C4=O)c(F)c3)ccc21 [Example B103] | 1480 |
| COc1cc(-c2cccc3nn(C)cc23)ccc1CN1Cc2ncccc2C1=O [Example B104] | 1510 |
| Cn1cc2cc(-c3cc(F)c(CN4Cc5ncccc5C4=O)cc3F)ccc2n1 [Example B105] | 407 |
